Data from ChEMBL document CHEMBL5576092, “Iron(III) Binding Properties of PF1140, a Fungal N-Hydroxypyridone, and Activity against Mycoplasma genitalium” (J Nat Prod, 2024).
≈ marks a conversion by molar mass, not a printed value. One block for each molecule: values may come before it. Calls of active or inactive are those of the source. The rule behind the calls is not given here.

Tests used:
Mycoplasma genitalium [1] = experiment: Antibacterial activity against Mycoplasma genitalium G37 assessed as bacterial growth inhibition incubated for 7 days by microbroth dilution assay; type: functional; conditions: Mycoplasmoides genitalium, G37, 168 h; time 7 day
Mycoplasma genitalium [2] = experiment: Antibacterial activity against Mycoplasma genitalium G37 assessed as bacterial growth inhibition at 1.16 uM incubated for 7 days by time-kill assay relative to control; type: functional, Mycoplasmoides genitalium; design: scale not given: the % may be the effect or the level left; conditions: time 7 day
Mycoplasma genitalium [3] = experiment: Potentiation of hydrogen peroxide sensitivity in Mycoplasma genitalium assessed as reduction in bactericidal concentration of hydrogen peroxide at 0.32 uM measured after 7 days by checkerboard technique (reference value: 7 mM); type: functional, Mycoplasmoides genitalium; conditions: time 7 day
Mycoplasma genitalium [4] = experiment: Antibacterial activity against Mycoplasma genitalium assessed as bacterial growth inhibition in SP-4 broth medium supplemented with DPP and ferric chloride at 0.64 uM measured after 2 hrs by absorbance based analysis; type: functional, organism-based; conditions: Mycoplasmoides genitalium
[5] = Metal chelating activity assessed as compound-Fe3+ complex formation by UV-Vis spectrophotometric analysis
Mycoplasma genitalium [6] = experiment: Antibacterial activity against Mycoplasma genitalium Sea-2 assessed as bacterial growth inhibition incubated for 7 days by microbroth dilution assay; type: functional; conditions: Mycoplasmoides genitalium, Sea-2, 168 h; time 7 day
Mycoplasma genitalium [7] = experiment: Antibacterial activity against Mycoplasma genitalium assessed as bacterial growth inhibition in SP-4 broth medium supplemented with DPP at 0.08 to 0.64 uM measured after 2 hrs by absorbance based analysis; type: functional, organism-based; conditions: Mycoplasmoides genitalium, dose 0.08-0.64 µM
Mycoplasma genitalium [8] = experiment: Antibacterial activity against Mycoplasma genitalium M2282 assessed as bacterial growth inhibition incubated for 7 days by microbroth dilution assay; type: functional; conditions: Mycoplasmoides genitalium, M2282, 168 h; time 7 day
[9] = Selectivity index, ratio of IC50 for human WIL-2N cells to IC50 for Mycoplasma genitalium G37; type: toxicity; conditions: read-out: Ratio IC50
[10] = Metal chelating activity assessed as compound-Cobalt complex formation by UV-Vis spectrophotometric analysis
Mycoplasma genitalium [11] = experiment: Antibacterial activity against Mycoplasma genitalium assessed as bacterial growth inhibition in SP-4 broth medium supplemented with TPEN at 0.64 uM measured after 2 hrs by absorbance based analysis; type: functional, organism-based; conditions: Mycoplasmoides genitalium
Mycoplasma genitalium [12] = experiment: Bacteriostatic activity against Mycoplasma genitalium G37 assessed as bacterial growth inhibition at 4 times MIC measured after 7 days by time-kill assay relative to control; type: functional, Mycoplasmoides genitalium; design: scale not given: the % may be the effect or the level left; conditions: time 7 day
[13] = Metal chelating activity assessed as compound-manganese complex formation by UV-Vis spectrophotometric analysis
Mycoplasma genitalium [14] = experiment: Antibacterial activity against Mycoplasma genitalium Sea-1 assessed as bacterial growth inhibition by qPCR analysis; type: functional, organism-based; conditions: Mycoplasmoides genitalium
Mycoplasma genitalium [15] = experiment: Antibacterial activity against Mycoplasma genitalium Sea-1 assessed as bacterial growth inhibition incubated for 7 days by microbroth dilution assay; type: functional; conditions: Mycoplasmoides genitalium, Sea-1, 168 h; time 7 day
Mycoplasma genitalium [16] = experiment: Antibacterial activity against Mycoplasma genitalium G37 assessed as bacterial growth inhibition at 0.29 to 0.58 uM incubated for 7 days by time-kill assay; type: functional, organism-based; conditions: Mycoplasmoides genitalium, dose 0.29-0.58 µM, time 7.0 day
Mycoplasma genitalium [17] = experiment: Antibacterial activity against Mycoplasma genitalium M2300 assessed as bacterial growth inhibition incubated for 7 days by microbroth dilution assay; type: functional; conditions: Mycoplasmoides genitalium, M2300, 168 h; time 7 day
[18] = Metal chelating activity assessed as compound-copper complex formation by UV-Vis spectrophotometric analysis
Mycoplasma genitalium [19] = experiment: Antibacterial activity against Mycoplasma genitalium assessed as bacterial growth inhibition in SP-4 broth medium supplemented with TPEN and zinc chloride at 0.64 uM measured after 2 hrs by absorbance based analysis; type: functional, organism-based; conditions: Mycoplasmoides genitalium
[20] = Metal chelating activity assessed as compound-calcium complex formation by UV-Vis spectrophotometric analysis
[21] = Selectivity index, ratio of IC50 for African green monkey Vero cells to IC50 for Mycoplasma genitalium G37; type: toxicity; conditions: read-out: Ratio IC50
Mycoplasma genitalium [22] = experiment: Antibacterial activity against Mycoplasma genitalium at >0.3 uM; type: functional, organism-based; conditions: Mycoplasmoides genitalium
[23] = Metal chelating activity assessed as compound-Nickel complex formation by UV-Vis spectrophotometric analysis
[24] = Selectivity index, ratio of IC50 for human HeLa cells to IC50 for Mycoplasma genitalium G37; type: toxicity; conditions: read-out: Ratio IC50
Mycoplasma genitalium [25] = experiment: Antibacterial activity against Mycoplasma genitalium at 0.28 to 1.12 measured after >1 month; type: functional, organism-based; conditions: Mycoplasmoides genitalium; time > 1.0 months
Mycoplasma genitalium [26] = experiment: Antibacterial activity against Mycoplasma genitalium G37 assessed as bacterial growth inhibition by qPCR analysis; type: functional, organism-based; conditions: Mycoplasmoides genitalium
[27] = Selectivity index, ratio of IC50 for human HepG2 cells to IC50 for Mycoplasma genitalium G37; type: toxicity; conditions: read-out: Ratio IC50
[28] = Metal chelating activity assessed as compound-magnesium complex formation by UV-Vis spectrophotometric analysis
[29] = Metal chelating activity assessed as compound-zinc complex formation by UV-Vis spectrophotometric analysis
Mycoplasma genitalium [30] = experiment: Antibacterial activity against Mycoplasma genitalium Sea-2 assessed as bacterial growth inhibition by qPCR analysis; type: functional, organism-based; conditions: Mycoplasmoides genitalium

SMILES: C[C@@H]1C[C@H](C)[C@@H](c2c(O)cc[nH]c2=O)[C@H](C)[C@@](C)(O)C1 [DEOXYAKANTHOMYCIN]
MIC (Mycoplasma genitalium [1]): > 80 µM

SMILES: COn1ccc(O)c([C@@H]2[C@@H](C)C[C@@H](C)C[C@](C)(O)[C@H]2C)c1=O
MIC (Mycoplasma genitalium [1]): > 80 µM

SMILES: C=C[C@H]1C[C@@H](C)C[C@@H](C)[C@@H]1c1c(O)ccn(O)c1=O
MIC (Mycoplasma genitalium [1]): > 95 µM

More lines, main results first:

Activity [5]: Active | MIC (Mycoplasma genitalium [6]): 0.32 µM (≈ 0.0888 µg/mL) | MIC (Mycoplasma genitalium [8]): 0.16 µM (≈ 0.0444 µg/mL) | Activity [10]: inactive | Activity [13]: inactive | MIC (Mycoplasma genitalium [15]): 0.16 µM (≈ 0.0444 µg/mL) | MIC (Mycoplasma genitalium [1]): 0.32 µM (≈ 0.0888 µg/mL) | MIC (Mycoplasma genitalium [17]): 0.16 µM (≈ 0.0444 µg/mL) | Activity [18]: inactive | Activity [20]: inactive | Activity [23]: inactive | Activity [28]: inactive | Activity [29]: inactive
SMILES: C[C@@H]1C[C@H](C)[C@H]2c3c(ccn(O)c3=O)O[C@H](C)[C@@]2(C)C1
Activity (Mycoplasma genitalium [2]): 84.2% | Activity (Mycoplasma genitalium [3]): 1.8 mM | Activity (Mycoplasma genitalium [4]): Active | Activity (Mycoplasma genitalium [7]): inactive | selectivity ratio [9]: > 32 | Activity (Mycoplasma genitalium [11]): inactive | Activity (Mycoplasma genitalium [12]): >99.9% | IC50 (Mycoplasma genitalium [14]): 0.1 µM | IC90 (Mycoplasma genitalium [14]): 0.12 µM | Activity (Mycoplasma genitalium [16]): Active | Activity (Mycoplasma genitalium [19]): Active | selectivity ratio [21]: > 32 | Activity (Mycoplasma genitalium [22]): inactive | selectivity ratio [24]: > 32 | Activity (Mycoplasma genitalium [25]): inactive | IC50 (Mycoplasma genitalium [26]): 0.09 µM | IC90 (Mycoplasma genitalium [26]): 0.12 µM | selectivity ratio [27]: > 32 | IC50 (Mycoplasma genitalium [30]): 0.06 µM | IC90 (Mycoplasma genitalium [30]): 0.11 µM

MIC (Mycoplasma genitalium [1]): > 80 µM
SMILES: C[C@@H]1C[C@H](C)[C@H]2c3c(cc[nH]c3=O)O[C@H](C)[C@@]2(C)C1

MIC (Mycoplasma genitalium [1]): > 80 µM
SMILES: COn1ccc2c(c1=O)[C@@H]1[C@@H](C)C[C@@H](C)C[C@]1(C)[C@@H](C)O2
